Key:
[1] = Blood level and bioavailability in rats (Experiment E-2); settings: rat, blood, po
Description: Then changes in the blood level of each medicament were monitored with the lapse of time by using liquid chromatography.

SHR = assay: Effect by oral administration on SHR, tail cuff method (Experiment C-6); assay type: in vivo, Spontaneously hypertensive male rats
Description: By using Spontaneously hypertensive male rats (aged 16 to 17 weeks), the compound of Example C-8 and a comparative compound [S-(R*,R*)]-2,3,4,5-tetrahydro-3-[(2-mercapto-1-oxohexyl)amino]-2-oxo-1H-benzazepine-1-acetic acid having the following structure each dissolved in 0.5% methylcellulose were orally administered thereto. Hypotensive effects were measured by the tail cuff method and data obtained before the oral administration and 2, 4 and 8 hours after the administration were compared. […] Accordingly, the compound of Example C-8 has an activity about 10 times as high as that of the comparative compound. [drawing 35]

[2] = target: T1, vasopressin (V1) receptor (Rattus norvegicus, UniProt P30560); assay: V1 receptor binding assay, rat liver membrane (Experiment E-3); settings: [3H]-Arg-vasopressin, pH 7.4
T1 construct: Membrane specimens of rat liver (V1); from tissue; host or cells: rat liver membranes
T1 sequence (P30560 whole entry): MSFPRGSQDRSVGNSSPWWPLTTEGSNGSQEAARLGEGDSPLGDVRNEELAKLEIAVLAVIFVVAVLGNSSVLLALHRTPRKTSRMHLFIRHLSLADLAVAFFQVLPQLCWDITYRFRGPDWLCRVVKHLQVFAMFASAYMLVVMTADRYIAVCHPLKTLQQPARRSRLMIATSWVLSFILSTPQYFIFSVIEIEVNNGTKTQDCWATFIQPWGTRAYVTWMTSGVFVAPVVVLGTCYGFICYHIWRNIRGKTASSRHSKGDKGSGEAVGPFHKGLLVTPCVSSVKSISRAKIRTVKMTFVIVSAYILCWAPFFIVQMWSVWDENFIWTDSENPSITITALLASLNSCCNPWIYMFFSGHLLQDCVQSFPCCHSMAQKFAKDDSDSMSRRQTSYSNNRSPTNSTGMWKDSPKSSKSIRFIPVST
Description: (§1) Membrane specimens of rat liver (V1) and rat kidney (V2) were used. 100,000 counts (3.69 nM) of [^3 H]-Arg-vasopressin, 25 μg (1 mg protein/ml) of each membrane specimen and a test medicament (10^-7 to 10^-5 M) were incubated in a total volume of 250 μl of an assay buffer (pH=7.4) containing 10 mM of MgCl2, 2 mM of EGTA and 20 mM of HEPES at 4° C. over day and night. Then, the incubation was washed with 5-ml portions of the buffer 5 times to thereby separate the membrane specimen binding to vasopressin followed by filtration with the use of a glass filter (GF/F). This glass filter was dried for about 3 hours and mixed with a cocktail for liquid scintillation (10 ml, ACSII). After allowing to stand overnight, the amount of the [^3 H]-Arg-vasopressin binding to the membrane was determined with a liquid scintillation counter and the inhibition ratio was calculated in accordance with the following formula: […]
(§2) B1; the amount of [^3 H]-Arg-vasopressin binding to the membrane in the presence of excessive vasopressin (10 μM)
(§3) C0; the amount of [^3 H]-Arg-vasopressin binding to the membrane in the absence of the test medicament and
(§4) C1; the amount of [^3 H]-Arg-vasopressin binding to the membrane in the presence of both the test medicament in a known amount and [^3 H]-Arg-vasopressin. […]

[3] = target: T2, vasopressin (V2) receptor (Rattus norvegicus, UniProt Q00788); assay: V2 receptor binding assay, rat kidney membrane (Experiment F-2); settings: [3H]-Arg-vasopressin, pH 7.4
T2 construct: rat kidney (V2); from tissue; host or cells: rat kidney membranes
T2 sequence (Q00788 whole entry): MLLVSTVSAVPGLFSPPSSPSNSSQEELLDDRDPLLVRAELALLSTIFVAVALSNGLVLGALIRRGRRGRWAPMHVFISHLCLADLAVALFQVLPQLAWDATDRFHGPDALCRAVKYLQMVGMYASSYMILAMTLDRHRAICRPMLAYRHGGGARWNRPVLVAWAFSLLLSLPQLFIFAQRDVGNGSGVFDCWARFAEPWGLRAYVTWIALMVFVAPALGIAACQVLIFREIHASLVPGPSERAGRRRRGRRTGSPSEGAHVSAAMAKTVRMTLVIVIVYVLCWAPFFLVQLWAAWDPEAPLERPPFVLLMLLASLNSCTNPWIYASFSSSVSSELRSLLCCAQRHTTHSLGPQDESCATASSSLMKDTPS
Description: as §1, with “in” for “in a total volume of”, “μl in total” for “μl”
as §2, §3, §4

SMILES: O=C(N[C@H]1Cc2ccccc2[C@H]2CCC[C@@H](C(=O)O)N2C1=O)[C@@H](S)Cc1ccccc1 [Comp. cpd. E-1, [4S-[4α,7α(R*),12bβ]]-7-[(1-oxo-2-(S)-thio-3-phenyl-propyl)amino]-1,2,3,4,6,7,8,12b-octahydro-6-oxopyrido-[2,1-a][2]benzazepine-4-carboxylic acid, reference compound]
- bioavailability ([1]; 10 mg/kg): 4.3%
- bioavailability ([1]; 30 mg/kg): 7.8%

SMILES: CC[C@H](C)[C@H](S)C(=O)N[C@H]1CCC[C@H]2SC[C@@H](C(=O)O)N2C1=O [Example C-8, [3R-[3α,6α,(S*),9aβ]]-6-[[(2S,3S)-3-methyl-1-oxo-2-thiopentyl]amino]-octahydro-5-oxothiazol[3,2-a]-azepine-3-carboxylic acid]
- hypotensive effect (tail cuff method) (SHR; 1.0 mg/kg oral, before and 2, 4 and 8 hours after): comparable to the one achieved by 10 mg/kg of the above comparative compound
- activity relative to the comparative compound (SHR; oral, SHR): about 10 times

SMILES: CC(C)[C@H](S)C(=O)N[C@H]1Cc2ccc(-c3ccccc3)cc2[C@H]2CCC[C@@H](C(=O)O)N2C1=O [Example E-10, [4S-[4α,7α(R*),12bβ]]-7-[(S)-2-Mercapto-3-methylbutyrylamino]-6-oxo-11-phenyl-1,2,3,4,6,7,8,12b-octahydropyrido[2,1-a][2]benzazepine-4-carboxylic acid]
- IC50 [2]: ≥ 10000 nM

SMILES: O=C(N[C@H]1CCC[C@H]2SC[C@@H](C(=O)O)N2C1=O)[C@@H](S)Cc1ccccc1 [Example F-17, [3R-[3α,6α(S*),9aβ]]-6-[[(S)-1-Oxo-2-thio-3-phenylpropyl]amino]-octahydro-5-oxothiazol[3,2-a]-azepine-3-carboxylic acid]
- IC50 [3]: 1390 nM

Source: patent publication US5679671A, “Amino acid derivative” (Eisai Co., Ltd., priority 1993, dated 1997)
